The values below come from patent US20080207708A1, “Oxazole and Thiazole Compounds and Their Use in the Treatment of Pge2 Mediated Disorders” (GLAXO GROUP LIMITED, priority 2005, published 2008).

Structures can show the parent of a compound that is named as a salt.

Test [1] has as its target T1, EP1 receptors (Homo sapiens, UniProt P34995).
T1 sequence (P34995 1-402): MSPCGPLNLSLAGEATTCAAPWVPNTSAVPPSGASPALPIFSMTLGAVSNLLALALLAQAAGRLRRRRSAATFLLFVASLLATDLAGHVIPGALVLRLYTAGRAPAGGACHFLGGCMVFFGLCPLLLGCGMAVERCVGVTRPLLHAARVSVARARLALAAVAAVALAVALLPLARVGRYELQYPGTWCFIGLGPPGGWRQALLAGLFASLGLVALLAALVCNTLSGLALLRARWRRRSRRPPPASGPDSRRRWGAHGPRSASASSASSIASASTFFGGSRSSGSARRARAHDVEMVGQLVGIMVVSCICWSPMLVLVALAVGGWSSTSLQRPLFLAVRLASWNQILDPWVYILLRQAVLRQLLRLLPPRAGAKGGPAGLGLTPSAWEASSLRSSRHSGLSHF
The experiment in a line: human EP1 calcium mobilisation assay (CHO-K1 cells, FLIPR, PGE2). Format: cell-based. More on the design: expressed in transfected cells; host or cells: CHO-K1 cells, pCIN vector. Conditions: free bases or sodium salts; averages of a number of experiments; read-out: functional pKi value, human EP1 calcium mobilisation assay (converted). On the procedure:
Briefly, the antagonist properties of compounds are assessed by their ability to inhibit the mobilisation of intracellular calcium ([Ca^2+]i) in response to activation of EP1 or EP3 receptors by the natural agonist hormone prostaglandin E2 (PGE2). Increasing concentrations of antagonist reduce the amount of calcium that a given concentration of PGE2 can mobilise. The net effect is to displace the PGE2 concentration-effect curve to higher concentrations of PGE2. The amount of calcium produced is assessed using a calcium-sensitive fluorescent dye such as Fluo-4, AM and a suitable instrument such as a Fluorimetric Imaging Plate Reader (FLIPR). Increasing amounts of [Ca^2+]i produced by receptor activation increase the amount of fluorescence produced by the dye and give rise to an increasing signal. The signal may be detected using the FLIPR instrument and the data generated may be analysed with suitable curve-fitting software.
The human EP1 or EP3 calcium mobilisation assay (hereafter referred to as ‘the calcium assay’) utilises Chinese hamster ovary-K1 (CHO-K1) cells into which a stable (pCIN; BioTechniques 20 (1996): 102-110) vector containing either EP1 or EP3 cDNA has previously been transfected. Cells are cultured in suitable flasks containing culture medium such as DMEM:F-12 supplemented with 10% v/v foetal calf serum, 2 mM L-glutamine, 0.25 mg/ml geneticin, 100 μM flurbiprofen and 10 µg/ml puromycin. For assay, cells are harvested using a proprietary reagent that dislodges cells such as Versene. Cells are re-suspended in a suitable quantity of fresh culture media for introduction into a 384-well plate. Following incubation for 24 hours at 37° C. the culture media is replaced with a medium containing Fluo-4 and the detergent pluronic acid, and a further incubation takes place. Concentrations of compounds are then added to the plate in order to construct concentration-effect curves. This may be performed on the FLIPR in order to assess the agonist properties of the compounds. Concentrations of PGE2 are then added to the plate in order to assess the antagonist properties of the compounds. The data so generated may be analysed by means of a computerised curve-fitting routine. The concentration of compound that elicits a half-maximal inhibition of the calcium mobilisation induced by PGE2 (pIC50) may then be estimated.
A general note: A change in cytosolic calcium serves as a functional read-out for many receptors and channels.

The target in test [2] is T1, EP1 receptors. The experiment in a line: Binding assay for the human prostanoid EP1 receptor (competition with [3H]-PGE2). More on the design: expressed in transfected cells; host or cells: CHO-K1 cells, membrane fraction. Conditions: [3H]-PGE2 competition; averages of a number of experiments; read-out: pIC50 value, binding assay for the human prostanoid EP1 receptor (converted). The method in brief: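 Competition against 3 nM (final) tritiated PGE2 at 30° C for 30 min, pH 6 MES assay buffer, using membranes of stably transfected CHO-K1 cells. Filter-retained counts by scintillation; nonlinear curve fitting gives concentration inhibiting 50% of specific binding.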

With `CC(C(=O)O)c1csc(-c2cc(Cl)ccc2OCc2ccccc2)n1` (stereo not drawn) [Example 46, Sodium 2-(2-{5-chloro-2-[(phenylmethyl)oxy]phenyl}-1,3-thiazol-4-yl)propanoate], at EP1 receptors [1], the Ki was < 1 µM. Further, at EP1 receptors [2], the IC50 is ≤ 1 µM.

With `CC(C(=O)O)c1csc(-c2cc(Br)ccc2OCc2ccccc2)n1` (stereo not drawn) [Example 47, Sodium 2-(2-{5-bromo-2-[(phenylmethyl)oxy]phenyl}-1,3-thiazol-4-yl)propanoate], the Ki on EP1 receptors [1] is < 1 µM. Moreover, the IC50 at EP1 receptors [2] is ≤ 1 µM.

For `CC(C)(C(=O)O)c1csc(-c2cc(Cl)ccc2OCc2ccccc2)n1` [Example 48, Sodium 2-(2-{5-chloro-2-[(phenylmethyl)oxy]phenyl}-1,3-thiazol-4-yl)-2-methylpropanoate], at EP1 receptors [1], the Ki is < 1 µM. In addition, the IC50 at EP1 receptors [2] is ≤ 1 µM.

`CC(C)(C(=O)O)c1csc(-c2cc(Br)ccc2OCc2ccccc2)n1` [Example 49, Sodium 2-(2-{5-bromo-2-[(phenylmethyl)oxy]phenyl}-1,3-thiazol-4-yl)-2-methylpropanoate]: the Ki on EP1 receptors [1] is < 1 µM. In addition, the IC50 on EP1 receptors [2] is ≤ 1 µM.

For `CC(c1nc(C(=O)O)cs1)c1cc(Cl)ccc1OCc1ccccc1` (stereo not drawn) [Example 50], the Ki on EP1 receptors [1] was < 1 µM. Also, the IC50 at EP1 receptors [2] was ≤ 1 µM.

On to `O=C(O)Cc1coc(-c2cc(Cl)ccc2OCc2ccc(F)cc2F)n1` [Example 79, [2-(5-chloro-2-{[(2,4-difluorophenyl)-methyl]oxy}phenyl)-1,3-oxazol-4-yl]acetic acid], for which, at EP1 receptors [1], the Ki was > 1 µM. In addition, on EP1 receptors [2], the IC50 is ≤ 1 µM.

Regarding `O=C(O)Cc1coc(-c2cc(Cl)ccc2OCc2c(F)cc(F)cc2F)n1` [Example 80, [2-(5-chloro-2-{[(2,4,6-trifluorophenyl)methyl]oxy}phenyl)-1,3-oxazol-4-yl]acetic acid], at EP1 receptors [1], the Ki was > 1 µM. In addition, on EP1 receptors [2], the IC50 was ≤ 1 µM.

On to `O=C(O)Cc1coc(-c2cc(Cl)ccc2OCc2ccc(F)cc2Cl)n1` [Example 81, [2-(5-chloro-2-{[(2-chloro-4-fluorophenyl)methyl]oxy}phenyl)-1,3-oxazol-4-yl]acetic acid], for which the Ki at EP1 receptors [1] is > 1 µM. The IC50 on EP1 receptors [2] was ≤ 1 µM.

Consider `O=C(O)c1nc(Cc2cc(Cl)ccc2OCc2ccccc2Cl)cs1` [Example 83, Sodium 4-[(5-chloro-2-{[(2-chlorophenyl)methyl]oxy}phenyl)methyl]-1,3-thiazole-2-carboxylate], for which the IC50 on EP1 receptors [2] was ≤ 0.0316 µM.

In the case of `O=C(O)c1nc(Cc2cc(Cl)ccc2OCc2ccccc2F)cs1` [Example 84, Sodium 4-[(5-chloro-2-{[(2-fluorophenyl)methyl]oxy}-phenyl)methyl]-1,3-thiazole-2-carboxylate], on EP1 receptors [2], the IC50 is ≤ 0.0316 µM.

For `O=C(O)c1nc(Cc2cc(Cl)ccc2OCc2c(F)cc(F)cc2F)cs1` [Example 85, Sodium 4-[(5-chloro-2-{[(2,4,6-trifluorophenyl)methyl]-oxy}phenyl)methyl]-1,3-thiazole-2-carboxylate], the IC50 at EP1 receptors [2] is ≤ 0.0316 µM.

On to `O=C(O)c1nc(Cc2cc(Cl)ccc2OCc2ccc(Cl)cc2)cs1` [Example 86, Sodium 4-[(5-chloro-2-{[(4-chlorophenyl)methyl]-oxy}phenyl)methyl]-1,3-thiazole-2-carboxylate], for which the IC50 at EP1 receptors [2] was ≤ 0.0316 µM.

With `O=C(O)c1nc(Cc2cc(Cl)ccc2OCc2ccc(F)cc2Cl)cs1` [Example 87, Sodium 4-[(5-chloro-2-{[(2-chloro-4-fluorophenyl)methyl]oxy}-phenyl)methyl]-1,3-thiazole-2-carboxylate], the IC50 at EP1 receptors [2] was ≤ 0.0316 µM.

As to `O=C(O)c1nc(Cc2cc(Cl)ccc2OCc2c(F)ccc(F)c2F)cs1` [Example 88, Sodium 4-[(5-chloro-2-{[(2,3,6-trifluorophenyl)methyl]-oxy}phenyl)methyl]-1,3-thiazole-2-carboxylate], at EP1 receptors [2], the IC50 was ≤ 1 µM.

As to `O=C(O)c1nc(Cc2cc(Cl)ccc2OCc2cc(F)c(F)cc2F)cs1` [Example 89, Sodium 4-[(5-chloro-2-{[(2,4,5-trifluorophenyl)methyl]-oxy}phenyl)methyl]-1,3-thiazole-2-carboxylate], the IC50 at EP1 receptors [2] is ≤ 0.0316 µM.

Turning to `NC(=O)c1csc(Cc2cc(Cl)ccc2OCc2ccccc2)n1` [Example 90, 2-({5-Chloro-2-[(phenylmethyl)oxy]phenyl}methyl)-1,3-thiazole-4-carboxamide], on EP1 receptors [2], the IC50 is ≤ 1 µM.

Turning to `O=C(Nc1ccccc1)c1csc(Cc2cc(Cl)ccc2OCc2ccccc2)n1` [Example 91, 2-({5-Chloro-2-[(phenylmethyl)oxy]phenyl}methyl)-N-phenyl-1,3-thiazole-4-carboxamide], the Ki at EP1 receptors [1] was > 1 µM. Further, the IC50 on EP1 receptors [2] is ≤ 1 µM.

With `O=C(NS(=O)(=O)c1ccccc1)c1csc(Cc2cc(Cl)ccc2OCc2ccccc2)n1` [Example 100, 2-({5-Chloro-2-[(phenylmethyl)oxy]phenyl}methyl)-N-(phenylsulfonyl)-1,3-thiazole-4-carboxamide], the IC50 at EP1 receptors [2] is ≤ 0.0316 µM.

`Clc1ccc(OCc2ccccc2)c(Cc2nc(-c3nnn[nH]3)cs2)c1` [Example 109, 5-[2-({5-Chloro-2-[(phenylmethyl)oxy]phenyl}methyl)-1,3-thiazol-4-yl]-1H-tetrazole]: the IC50 at EP1 receptors [2] is ≤ 0.0316 µM.

For `O=C1CN(Cc2ccc(NC(=O)c3csc(Cc4cc(Cl)ccc4OCc4ccccc4)n3)cc2)CCN1` [Example 122, 2-({5-Chloro-2-[(phenylmethyl)oxy]phenyl}-methyl)-N-{4-[(3-oxo-1-piperazinyl)methyl]phenyl}-1,3-thiazole-4-carboxamidehydrochloride], on EP1 receptors [2], the IC50 is ≤ 0.0316 µM.

As for `CC(C)COc1ccc(Cl)cc1Cc1nc(-c2nc3ccc(CN4CCCC4)cc3[nH]2)cs1` [Example 123, 2-[2-({5-Chloro-2-[(2-methylpropyl)oxy]phenyl}-methyl)-1,3-thiazol-4-yl]-5-(1-pyrrolidinylmethyl)-1H-benzimidazole hydrochloride], at EP1 receptors [2], the IC50 is ≤ 0.0316 µM.

For the compound `Clc1ccc(OCc2ccccc2)c(Cc2nc(-c3nc4ccc(Cl)nc4[nH]3)cs2)c1` [Example 138, 5-Chloro-2-[2-({5-chloro-2-[(phenylmethyl)oxy]phenyl}methyl)-1,3-thiazol-4-yl]-1H-imidazo[4,5-b]pyridinehydrochloride], the IC50 on EP1 receptors [2] was ≤ 0.0316 µM.

As for `Clc1ccc(OCc2ccccc2)c(Cc2nc(-c3nnc[nH]3)cs2)c1` [Example 156, 3-[2-({5-Chloro-2-[(phenylmethyl)oxy]phenyl}methyl)-1,3-thiazol-4-yl]-1H-1,2,4-triazole], at EP1 receptors [2], the IC50 is ≤ 1 µM.

Take `CC(C)COc1ccc(Cl)cc1Cc1nc(-c2nnc[nH]2)cs1` [Example 157, 3-[2-({5-Chloro-2-[(2-methyl-propyl)oxy]-phenyl}methyl)-1,3-thiazol-4-yl]-1H-1,2,4-triazole]: the IC50 at EP1 receptors [2] was ≤ 1 µM.

For the compound `CC(C)(C)OC(=O)Nc1coc(Cc2cc(Cl)ccc2OCc2ccccc2)n1` [Example 161, 1,1-Dimethylethyl [2-({5-chloro-2-[(phenylmethyl)oxy]phenyl}methyl)-1,3-oxazol-4-yl]carbamate], at EP1 receptors [2], the IC50 is > 1 µM.

Turning to `CC(C)COc1ccc(Cl)cc1Cc1nc(-c2nc3ccccc3[nH]2)co1` [Example 162, 2-[2-({5-Chloro-2-[(2-methylpropyl)oxy]phenyl}methyl)-1,3-oxazol-4-yl]-1H-benzimidazole hydrochloride], at EP1 receptors [2], the IC50 is ≤ 0.0316 µM.

Regarding `CC(C)COc1ccc(Cl)cc1Cc1nc(-c2nc3cc(N4CCN(C)CC4)ccc3[nH]2)co1` [Example 163, 2-[2-({5-Chloro-2-[(2-methylpropyl)oxy]phenyl}methyl)-1,3-oxazol-4-yl]-5-(4-methyl-1-piperazinyl)-1H-benzimidazoletrihydrochloride], on EP1 receptors [2], the IC50 was ≤ 0.0316 µM.
